Experimental data as given in PubChem BioAssay (NCI).
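Exposure lasted 48 hours, with cells grown in 96-well plates and compounds tested at five concentrations. GI50 is the concentration that inhibits growth by half. TGI: concentration producing complete growth inhibition.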 Where a SMILES comes first, the peptide text is derived from it. Bridges are numbered along the chain shown (N, C = ends). [ ]: non-standard residue; d: D form. The star is where a group is joined. ξ: configuration not given here. ξDab(CH2SO3H) = NC(CCNCS(=O)(=O)O)C(=O)O; Heptanoyl(6-Me) = CC(C)CCCCC(=O)*; Dab = NCC[CH](N)C(=O)O

Tests used:
Experiment in all cases: NCI tumour cell line growth inhibition, 48 h
786-0 renal = system: 786-0 renal
COLO 205 colon = system: COLO 205 colon
HOP-62 NSCLC = system: HOP-62 NSCLC
MCF7 breast = system: MCF7 breast
NCI-H23 lung = system: NCI-H23 lung
NCI-H522 lung = system: NCI-H522 lung
OVCAR-3 ovarian = system: OVCAR-3 ovarian
OVCAR-8 ovarian = system: OVCAR-8 ovarian
SN12C renal = system: SN12C renal
SNB-19 CNS = system: SNB-19 CNS

CCC(C)C1NC(=O)C(CCNCS(=O)(=O)O)NC(=O)C(NC(=O)C(CCNCS(=O)(=O)O)NC(=O)C(NC(=O)C(CCNCS(=O)(=O)O)NC(=O)CCCCC(C)C)C(C)O)CCNC(=O)C(C(C)O)NC(=O)C(CCNCS(=O)(=O)O)NC(=O)C(CCNCS(=O)(=O)O)NC(=O)C(C(C)CC)NC1=O (stereo not given) ({Heptanoyl(6-Me)}-[ξDab(CH2SO3H)]T[ξDab(CH2SO3H)][Dab][ξDab(CH2SO3H)]II[ξDab(CH2SO3H)][ξDab(CH2SO3H)]T; lactam 4-C; configuration not given here)
GI50 (786-0 renal): 13 µM
TGI (786-0 renal): > 25 µM
GI50 (COLO 205 colon): 3.26 µM
TGI (COLO 205 colon): 8.85 µM
GI50 (HOP-62 NSCLC): 8.74 µM
TGI (HOP-62 NSCLC): > 25 µM
GI50 (MCF7 breast): 4.71 µM
TGI (MCF7 breast): > 25 µM
GI50 (NCI-H23 lung): 7.41 µM
TGI (NCI-H23 lung): > 25 µM
GI50 (NCI-H522 lung): 3.84 µM
TGI (NCI-H522 lung): 14.1 µM
GI50 (OVCAR-3 ovarian): 2.88 µM
TGI (OVCAR-3 ovarian): 8.06 µM
GI50 (OVCAR-8 ovarian): 9.66 µM
TGI (OVCAR-8 ovarian): > 25 µM
GI50 (SN12C renal): 11.2 µM
TGI (SN12C renal): > 25 µM
GI50 (SNB-19 CNS): 11.6 µM
TGI (SNB-19 CNS): > 25 µM

COc1ccc2c(c1)oc(=O)c1cc(OC)ccc12
GI50 (786-0 renal): > 100 µM
TGI (786-0 renal): > 100 µM
GI50 (COLO 205 colon): > 100 µM
TGI (COLO 205 colon): > 100 µM
GI50 (HOP-62 NSCLC): > 100 µM
TGI (HOP-62 NSCLC): > 100 µM
GI50 (MCF7 breast): > 100 µM
TGI (MCF7 breast): > 100 µM
GI50 (NCI-H23 lung): > 100 µM
TGI (NCI-H23 lung): > 100 µM
GI50 (NCI-H522 lung): > 100 µM
TGI (NCI-H522 lung): > 100 µM
GI50 (OVCAR-3 ovarian): > 100 µM
TGI (OVCAR-3 ovarian): > 100 µM
GI50 (OVCAR-8 ovarian): > 100 µM
TGI (OVCAR-8 ovarian): > 100 µM
GI50 (SN12C renal): > 100 µM
TGI (SN12C renal): > 100 µM
GI50 (SNB-19 CNS): > 100 µM
TGI (SNB-19 CNS): > 100 µM

COc1cc2ncnc(Nc3cccc(Cl)c3F)c2cc1OC(=O)N1CCN(C)C[C@H]1C
GI50 (786-0 renal): > 34.2 µM
TGI (786-0 renal): > 53.3 µM
GI50 (COLO 205 colon): > 38.1 µM
TGI (COLO 205 colon): > 58.1 µM
GI50 (HOP-62 NSCLC): > 35.7 µM
TGI (HOP-62 NSCLC): > 66.3 µM
GI50 (MCF7 breast): > 39 µM
TGI (MCF7 breast): > 77.3 µM
GI50 (NCI-H23 lung): > 47.5 µM
TGI (NCI-H23 lung): 97.3 µM
GI50 (NCI-H522 lung): 0.523 µM
TGI (NCI-H522 lung): > 31.3 µM
GI50 (OVCAR-3 ovarian): > 33.6 µM
TGI (OVCAR-3 ovarian): > 61.8 µM
GI50 (OVCAR-8 ovarian): > 40.9 µM
TGI (OVCAR-8 ovarian): > 77.9 µM
GI50 (SN12C renal): 40.5 µM
TGI (SN12C renal): > 100 µM
GI50 (SNB-19 CNS): > 44.8 µM
TGI (SNB-19 CNS): > 100 µM

COc1ccc(Nc2cc(C)nc(NCc3ccccc3)n2)cc1
GI50 (786-0 renal): 3.49 µM
TGI (786-0 renal): 17.6 µM
GI50 (COLO 205 colon): 2.08 µM
TGI (COLO 205 colon): 4.4 µM
GI50 (HOP-62 NSCLC): 9.92 µM
TGI (HOP-62 NSCLC): 24.9 µM
GI50 (MCF7 breast): 3.51 µM
TGI (MCF7 breast): 18.9 µM
GI50 (NCI-H23 lung): 3.55 µM
TGI (NCI-H23 lung): 16.3 µM
GI50 (NCI-H522 lung): 3.62 µM
TGI (NCI-H522 lung): 19.2 µM
GI50 (OVCAR-3 ovarian): 7.27 µM
TGI (OVCAR-3 ovarian): 24.5 µM
GI50 (OVCAR-8 ovarian): 6.71 µM
TGI (OVCAR-8 ovarian): 35.2 µM
GI50 (SN12C renal): 5.28 µM
TGI (SN12C renal): 20.4 µM
GI50 (SNB-19 CNS): 5.02 µM
TGI (SNB-19 CNS): 28.8 µM

CC/C(=C(/c1ccc(O)cc1)c1ccc(OCCN)cc1)c1ccccc1
GI50 (786-0 renal): 2.69 µM
TGI (786-0 renal): 7.28 µM
GI50 (COLO 205 colon): 1.95 µM
TGI (COLO 205 colon): 3.75 µM
GI50 (HOP-62 NSCLC): 3.3 µM
TGI (HOP-62 NSCLC): 10.7 µM
GI50 (MCF7 breast): < 0.0233 µM
TGI (MCF7 breast): 3.99 µM
GI50 (NCI-H23 lung): 4.56 µM
TGI (NCI-H23 lung): 16.5 µM
GI50 (NCI-H522 lung): 4.26 µM
TGI (NCI-H522 lung): 9.36 µM
GI50 (OVCAR-3 ovarian): 2.96 µM
TGI (OVCAR-3 ovarian): 8.01 µM
GI50 (OVCAR-8 ovarian): 3.12 µM
TGI (OVCAR-8 ovarian): 9.94 µM
GI50 (SN12C renal): 3.02 µM
TGI (SN12C renal): 9.67 µM
GI50 (SNB-19 CNS): 4.95 µM
TGI (SNB-19 CNS): 19 µM

O=[N+]([O-])c1ccc(C2=Nn3c(nnc3-c3ccc(Cl)cc3)SC2)o1
TGI (786-0 renal): 23 µM
TGI (COLO 205 colon): 4.31 µM
TGI (HOP-62 NSCLC): 24.9 µM
TGI (MCF7 breast): 4.05 µM
TGI (NCI-H23 lung): 18.6 µM
TGI (NCI-H522 lung): 2 µM
TGI (OVCAR-3 ovarian): 10.6 µM
TGI (OVCAR-8 ovarian): 26.3 µM
TGI (SN12C renal): 23.1 µM
TGI (SNB-19 CNS): 29.9 µM

C[C@@H]1CCC([C@@H](C)[C@H]2CC[C@H]3[C@@H]4CC[C@H]5C[C@@H](O)CC[C@]5(C)[C@H]4CC[C@]23C)=NC1
TGI (786-0 renal): > 56.2 µM
TGI (COLO 205 colon): > 53.2 µM
TGI (HOP-62 NSCLC): > 51.3 µM
TGI (MCF7 breast): > 54.8 µM
TGI (NCI-H23 lung): > 100 µM
TGI (NCI-H522 lung): 30.7 µM
TGI (OVCAR-3 ovarian): > 100 µM
TGI (OVCAR-8 ovarian): > 100 µM
TGI (SN12C renal): > 100 µM
TGI (SNB-19 CNS): > 100 µM

COc1cc(C(=O)N2CCN(c3ccccc3)CC2)c2ccccc2n1
GI50 (786-0 renal): 0.127 µM
TGI (786-0 renal): > 100 µM
GI50 (COLO 205 colon): 0.0623 µM
TGI (COLO 205 colon): 0.659 µM
GI50 (HOP-62 NSCLC): 0.119 µM
TGI (HOP-62 NSCLC): > 100 µM
GI50 (MCF7 breast): 0.0386 µM
TGI (MCF7 breast): > 100 µM
GI50 (NCI-H23 lung): 0.225 µM
TGI (NCI-H23 lung): > 100 µM
GI50 (NCI-H522 lung): 0.0324 µM
TGI (NCI-H522 lung): 0.475 µM
GI50 (OVCAR-3 ovarian): 0.0241 µM
TGI (OVCAR-3 ovarian): 0.0687 µM
GI50 (OVCAR-8 ovarian): 0.248 µM
TGI (OVCAR-8 ovarian): > 23.8 µM
GI50 (SN12C renal): 0.485 µM
TGI (SN12C renal): > 100 µM
GI50 (SNB-19 CNS): 0.929 µM
TGI (SNB-19 CNS): > 100 µM

CCOC(=O)Nc1nc2ccc(Br)cc2s1
GI50 (786-0 renal): > 50 µM
TGI (786-0 renal): > 50 µM
GI50 (COLO 205 colon): > 50 µM
TGI (COLO 205 colon): > 50 µM
GI50 (HOP-62 NSCLC): > 50 µM
TGI (HOP-62 NSCLC): > 50 µM
GI50 (MCF7 breast): > 50 µM
TGI (MCF7 breast): > 50 µM
GI50 (NCI-H23 lung): > 50 µM
TGI (NCI-H23 lung): > 50 µM
GI50 (NCI-H522 lung): > 50 µM
TGI (NCI-H522 lung): > 50 µM
GI50 (OVCAR-3 ovarian): > 50 µM
TGI (OVCAR-3 ovarian): > 50 µM
GI50 (OVCAR-8 ovarian): > 50 µM
TGI (OVCAR-8 ovarian): > 50 µM
GI50 (SN12C renal): > 50 µM
TGI (SN12C renal): > 50 µM
GI50 (SNB-19 CNS): > 50 µM
TGI (SNB-19 CNS): > 50 µM

CCc1nc(N)nc(N)c1-c1ccc2nnn(O)c2c1
TGI (786-0 renal): > 100 µM
TGI (COLO 205 colon): > 100 µM
TGI (HOP-62 NSCLC): > 100 µM
TGI (MCF7 breast): > 100 µM
TGI (NCI-H23 lung): > 100 µM
TGI (NCI-H522 lung): > 100 µM
TGI (OVCAR-3 ovarian): > 100 µM
TGI (OVCAR-8 ovarian): > 100 µM
TGI (SN12C renal): > 100 µM
TGI (SNB-19 CNS): > 100 µM
